Results reported in paper PMC11650849, “Brain endothelial permeability, transport, and flow assessed over 10 orders of magnitude using the in situ brain perfusion technique” (Fluids and Barriers of the CNS, 2024).
Like-named read-outs stand apart in the source and are kept apart here.

Legend:
[1] = Octanol/water partition and distribution coefficients; conditions: for Log Doct 7.4: octanol distribution coefficient, pH 7.4; for Log Poct: octanol partition coefficient
Lat-1 = Lat-1 (Rattus norvegicus, UniProt Q63016)
Sequence of Lat-1 (Q63016 whole entry): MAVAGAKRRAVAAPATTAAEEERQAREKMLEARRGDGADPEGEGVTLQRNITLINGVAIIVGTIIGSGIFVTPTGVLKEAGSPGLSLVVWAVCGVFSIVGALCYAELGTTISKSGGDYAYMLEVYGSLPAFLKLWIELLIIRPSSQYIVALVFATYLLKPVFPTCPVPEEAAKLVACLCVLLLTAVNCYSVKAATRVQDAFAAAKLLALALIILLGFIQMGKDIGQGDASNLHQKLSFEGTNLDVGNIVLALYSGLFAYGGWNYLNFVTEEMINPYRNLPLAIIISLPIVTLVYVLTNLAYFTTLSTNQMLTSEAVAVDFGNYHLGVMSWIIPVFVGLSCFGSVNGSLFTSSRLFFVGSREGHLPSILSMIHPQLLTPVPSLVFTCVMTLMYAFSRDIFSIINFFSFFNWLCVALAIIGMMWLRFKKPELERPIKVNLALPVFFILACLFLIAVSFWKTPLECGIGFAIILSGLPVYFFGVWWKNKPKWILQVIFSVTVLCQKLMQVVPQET
Sequence of Lat-1 (Q794F9 whole entry partner): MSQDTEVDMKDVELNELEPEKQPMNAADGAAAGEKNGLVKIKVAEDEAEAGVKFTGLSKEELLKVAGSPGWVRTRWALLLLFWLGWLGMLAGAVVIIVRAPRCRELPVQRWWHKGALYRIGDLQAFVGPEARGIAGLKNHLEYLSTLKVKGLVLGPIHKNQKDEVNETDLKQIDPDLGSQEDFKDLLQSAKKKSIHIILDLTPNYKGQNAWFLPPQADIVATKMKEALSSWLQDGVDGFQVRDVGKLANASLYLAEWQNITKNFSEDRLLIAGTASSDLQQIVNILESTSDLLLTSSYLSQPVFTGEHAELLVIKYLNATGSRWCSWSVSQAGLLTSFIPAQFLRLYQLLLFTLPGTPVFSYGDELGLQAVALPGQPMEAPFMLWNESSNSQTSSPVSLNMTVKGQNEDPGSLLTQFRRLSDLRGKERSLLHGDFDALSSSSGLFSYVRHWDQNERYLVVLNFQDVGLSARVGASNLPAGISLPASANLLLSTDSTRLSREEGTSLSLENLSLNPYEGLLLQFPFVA

[2] = for Brain Kin: calculated at brain blood flow […] and rat serum fu; for Extraction (unbound) / Brain vascular extraction (total): calculated at brain blood flow […]; for Extraction (unbound): free drug; for Brain vascular extraction (total): with rat serum fu
in vivo = conditions: rat, pH 7.4
[3] = ref Fenstermacher (papers of the 1990s and 2000s); cited from earlier work
[4] = rat in vivo measurements; cited from earlier work
[5] = Neutral fraction at pH 7.4 calculated from pKa; format: physicochemical
[6] = cited from earlier work
[7] = rat
[8] = cited from earlier work; for Log Poct: octanol partition coefficient
[9] = rat; remark: listed apart in the source
[10] = rat, in vivo; cited from earlier work
Choline transporter = conditions: facilitated nutrients
[11] = pH 7.4
GLUT1 = target: T1, GLUT1 (Rattus norvegicus, UniProt P11167); assay: In situ brain perfusion, facilitated nutrient transport by GLUT1; format: in vivo; conditions: facilitated nutrients
T1 construct: from tissue; host or cells: brain vascular endothelium (BBB) of the in situ perfused brain
T1 sequence (P11167 1-492): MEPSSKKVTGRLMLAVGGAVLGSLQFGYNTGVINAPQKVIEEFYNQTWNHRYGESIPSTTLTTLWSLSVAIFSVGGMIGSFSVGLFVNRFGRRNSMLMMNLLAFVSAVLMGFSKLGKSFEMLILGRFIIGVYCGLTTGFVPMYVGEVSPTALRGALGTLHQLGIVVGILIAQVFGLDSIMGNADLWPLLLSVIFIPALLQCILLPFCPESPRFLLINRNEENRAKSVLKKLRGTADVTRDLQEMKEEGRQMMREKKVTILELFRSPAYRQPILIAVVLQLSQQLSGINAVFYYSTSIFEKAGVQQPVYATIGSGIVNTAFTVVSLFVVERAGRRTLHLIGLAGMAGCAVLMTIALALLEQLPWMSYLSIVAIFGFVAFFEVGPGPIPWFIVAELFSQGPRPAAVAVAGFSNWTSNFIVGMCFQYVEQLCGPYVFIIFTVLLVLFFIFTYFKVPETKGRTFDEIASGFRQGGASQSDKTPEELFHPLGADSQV

[12] = ref Chou and Rowland [106]; cited from earlier work
[13] = In situ rat brain perfusion (brain uptake Kin, extraction E, BBB PS)
MCT8 L-T3 Transporter = MCT8 L-T3 Transporter (Rattus norvegicus, UniProt Q8K1P8)
Sequence of MCT8 L-T3 Transporter (Q8K1P8 whole entry): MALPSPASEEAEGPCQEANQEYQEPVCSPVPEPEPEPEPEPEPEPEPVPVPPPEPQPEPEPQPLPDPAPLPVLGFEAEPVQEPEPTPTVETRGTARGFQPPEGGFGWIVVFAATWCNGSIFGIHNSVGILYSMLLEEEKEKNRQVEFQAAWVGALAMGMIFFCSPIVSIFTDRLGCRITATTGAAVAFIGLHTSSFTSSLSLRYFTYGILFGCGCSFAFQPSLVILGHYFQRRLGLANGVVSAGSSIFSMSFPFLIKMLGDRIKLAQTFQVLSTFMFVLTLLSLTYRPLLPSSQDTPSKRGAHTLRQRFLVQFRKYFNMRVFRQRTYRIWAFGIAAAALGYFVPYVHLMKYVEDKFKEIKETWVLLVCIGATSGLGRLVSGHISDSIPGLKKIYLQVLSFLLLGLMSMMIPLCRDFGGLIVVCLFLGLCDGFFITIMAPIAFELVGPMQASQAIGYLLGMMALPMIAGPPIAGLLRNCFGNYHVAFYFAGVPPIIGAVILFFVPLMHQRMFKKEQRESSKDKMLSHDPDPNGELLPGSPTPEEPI

MAT1 = target: T2, MAT1 (Rattus norvegicus, UniProt P53987); conditions: facilitated nutrients, MAT1, S 30 s
T2 sequence (P53987 1-494): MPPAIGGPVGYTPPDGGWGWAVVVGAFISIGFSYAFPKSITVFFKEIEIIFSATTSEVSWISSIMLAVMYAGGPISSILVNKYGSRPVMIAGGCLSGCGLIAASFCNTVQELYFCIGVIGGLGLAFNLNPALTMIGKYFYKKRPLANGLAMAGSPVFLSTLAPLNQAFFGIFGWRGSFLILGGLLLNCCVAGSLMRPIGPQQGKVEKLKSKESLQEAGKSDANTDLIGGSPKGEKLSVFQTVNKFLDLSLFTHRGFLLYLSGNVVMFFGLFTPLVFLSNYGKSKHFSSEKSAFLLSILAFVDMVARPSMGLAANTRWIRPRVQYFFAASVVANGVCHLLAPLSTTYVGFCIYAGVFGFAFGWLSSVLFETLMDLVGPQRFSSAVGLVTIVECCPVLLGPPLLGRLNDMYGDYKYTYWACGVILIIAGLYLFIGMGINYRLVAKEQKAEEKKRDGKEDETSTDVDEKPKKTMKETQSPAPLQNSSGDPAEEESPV

[14] = LAT1 substrates, tracer concentration
[15] = LAT1 substrates, tracer concentration, perfusion 15-30 s
[16] = neutral fraction at perfusion fluid pH 7.40, calculated from pKa
[17] = ref Hansch et al. [123], Avdeef [46] or other sources

Compound: N[C@H](C(=O)O)[C@@H]1CC(Cl)=NO1 [Acivicin]
- Log Doct 7.4 [1]: −2.63
- Log Poct [1]: −0.31
- LogPS (Lat-1; [14]): −3.32
- PS (Lat-1; [15]): 0.000479 mL/s/g

Compound: Nc1ncnc2nc[nH]c12 [Adenine]
- Log Doct 7.4 [1]: −2.12

Compound: Nc1ncnc2c1ncn2[C@@H]1O[C@H](CO)[C@@H](O)[C@H]1O [Adenosine]
- Log Doct 7.4 [1]: −1.02

Compound: Cc1cc(=O)n(-c2ccccc2)n1C [Antipyrine]
- Brain Kin [2]: 0.0143 mL/s/g
- Extraction (unbound) [2]: 62.7%
- Brain vascular extraction (total) [2]: 59.7%
- half-life (in vivo): 1 min
- brain vascular PS [3]: 0.02 to 0.025 mL/s/g
- Brain Vu,br [4]: 1.25 mL/g
- fn (%) [5, 16]: 100%
- fu,.p ([6]; rat in vivo measurements): 0.92
- half-life ([7]; brain): 0.93 min

Compound: CCC1(CC)C(=O)NC(=O)NC1=O [Barbital]
- Log Poct [8, 17]: 0.65
- Log Doct pH=7.4 [8, 17]: 0.64
- Log Pc ([9]; in vivo, pH 7.4): −4.42
- Log PoS ([9]; in vivo, pH 7.4): −2.32
- Pc ([9]; in vivo, pH 7.4): 38.1 ×10⁻⁶ cm/s
- PcS ([9]; in vivo, pH 7.4): 0.0038 mL/s/g
- PoS ([9]; in vivo, pH 7.4): 0.00477 mL/s/g
- Log Po ([9]; in vivo, pH 7.4): −4.32
- Po ([9]; in vivo, pH 7.4): 47.7 ×10⁻⁶ cm/s
- Brain Equilibration t1/2, Measured [10]: 3.27 min
- fn (%) [5, 16]: 79.9%
- fu,.p ([6]; rat in vivo measurements): 0.985
- half-life [7]: 3.63 min
- half-life ([7]; plasma): 3.6 min

Compound: C[N+](C)(C)CCO [Choline]
- Log Doct 7.4 [1]: −3.70
- Log PS (Choline transporter): −2.89
- PS (Choline transporter; S 20 s): 0.0013 mL/s/g

Compound: OC[C@H]1OC(O)[C@H](O)[C@@H](O)[C@@H]1O (stereo partly drawn) [D-Glucose]
- Log Doct 7.4 [11]: −1.88
- Log PS (GLUT1; GLUT1): −2.16
- PS (GLUT1; GLUT1, S 16 s): 0.00694 mL/s/g

Compound: CN1C(=O)CN=C(c2ccccc2)c2cc(Cl)ccc21 [Diazepam]
- fn (%) ([5]; pH 7.4): 100%
- PS for liver membrane [12]: 0.4 mL/s/g

Compound: OCCO [Ethylene glycol]
- Brain Equilibration t1/2, Calculated ([2]; plasma): 21 min
- Log Doct pH=7.4 [8]: −1.36
- E of permeability markers [9]: 2–4%
- BBB PS / PoS over the flow range ([9]; in vivo): 4 - 7x 10^-4
- Log Pc ([9]; in vivo): −5.24
- Log PoS ([9]; in vivo): −3.24
- PS Average used for normalization ([9]; in vivo): 0.0006 mL/s/g
- Pc ([9]; in vivo): 5.69 ×10⁻⁶ cm/s
- PcS ([9]; in vivo): 0.00057 mL/s/g
- PoS ([9]; in vivo): 0.000569 mL/s/g
- PoS, flow-corrected ([9]; in vivo): 3–6 10^–4 mL/s/g
- Log Po ([9]; in vivo): −5.24
- Po ([9]; in vivo): 5.69 ×10⁻⁶ cm/s
- Brain Equilibration t1/2, Measured [10]: 17 min
- fn (%) ([5]; pH 7.4): 100%
- fu,.p ([6]; rat): 1.00

Compound: O=C(CO)[C@@H](O)[C@H](O)[C@H](O)CO [Fructose]
- Brain Kin [2]: 5.74e-06 mL/s/g
- Extraction (unbound) [2]: 2.39E-04%
- Brain vascular extraction (total) [2]: 2.39E-04%
- Log Poct [8, 17]: −3.20
- Log Doct pH=7.4 [8, 17]: −3.20
- Brain Vu,br [4]: 0.08 mL/g
- fn (%) [5, 16]: 100%
- Log Pc ([13]; Pc in cm/s): −7.24
- Log Po ([13]; Po in cm/s): −7.24
- Log PoS ([13]; PoS in mL/s/g): −5.24
- Pc ([13]; S assumed 100 cm^2/g): 0.0574 ×10⁻⁶ cm/s
- Po ([13]; S assumed 100 cm^2/g): 0.0574 ×10⁻⁶ cm/s
- PoS ([13]; brain vascular intrinsic PoS): 5.74e-06 mL/s/g
- PcS ([13]; cerebral cortex, flow 0.1–[…], S = physiological saline, AB = artificial blood): 5.74e-06 mL/s/g
- PoS ([13]; intrinsic PS of neutral solute, PoS = PcS/fn, flow 0.1–[…]): 5.74e-06 mL/s/g
- fu,.p ([6]; rat in vivo measurements): 1.00
- half-life [7]: 168 min

Compound: NCC1(CC(=O)O)CCCCC1 [Gabapentin]
- Log Doct 7.4 [1]: −1.4
- Log Poct [1]: 1.19
- LogPS (Lat-1; rat, in vivo, pH 7.4): −2.33
- PS (Lat-1; rat, in vivo, pH 7.4): 0.00473 mL/s/g

Compound: Nc1ccn([C@@H]2O[C@H](CO)[C@@H](O)C2(F)F)c(=O)n1 [Gemcitabine]
- Log Doct 7.4 [1]: −1.36
- Log Poct [1]: −0.470

Compound: CNC[C@H](N)C(=O)O [L-BMAA]
- Log Doct 7.4 [1]: −3.4
- Log Poct [1]: −0.85
- LogPS (Lat-1; [14]): −3.27
- PS (Lat-1; [15]): 0.000542 mL/s/g

Compound: N[C@@H](Cc1ccc(O)c(O)c1)C(=O)O [L-DOPA]
- Log Doct 7.4 [1]: −2.7
- Log Poct [1]: −0.22
- LogPS (Lat-1; [14]): −1.99
- PS (Lat-1; [15]): 0.0102 mL/s/g

Compound: CC(C)C[C@H](N)C(=O)O [L-Leucine]
- Log Doct 7.4 [1]: 0.73
- LogPS (Lat-1; [14]): −1.45
- PS (Lat-1; [15]): 0.0354 mL/s/g

Compound: N[C@@H](Cc1ccccc1)C(=O)O [L-Phenylalanine]
- Log Doct 7.4 [1]: −1.46
- Log Poct [1]: 1.110
- LogPS (Lat-1; [14]): −1.108
- PS (Lat-1; [15]): 0.078 mL/s/g

Compound: N[C@@H](Cc1cc(I)c(Oc2ccc(O)c(I)c2)c(I)c1)C(=O)O [L-T3]
- PS (MCT8 L-T3 Transporter): 0.0146 mL/s/g

Compound: N[C@@H](Cc1ccc(N(CCCl)CCCl)cc1)C(=O)O [Melphalan (para)]
- Log Doct 7.4 [1]: −1.03
- Log Poct [1]: 1.79

Compound: CCCC(C)C1(CC)C(=O)NC(=O)NC1=O (stereo not drawn) [Pentobarbital]
- half-life (in vivo): 1.15 min
- Log Poct [8, 17]: 2.08
- Log Doct pH=7.4 [8, 17]: 2.01
- Log Pc ([9]; in vivo, pH 7.4): −3.35
- Log PoS ([9]; in vivo, pH 7.4): −1.22
- Pc ([9]; in vivo, pH 7.4): 450 ×10⁻⁶ cm/s
- PcS ([9]; in vivo, pH 7.4): 0.045 mL/s/g
- PoS ([9]; in vivo, pH 7.4): 0.0599 mL/s/g
- Log Po ([9]; in vivo, pH 7.4): −3.22
- Po ([9]; in vivo, pH 7.4): 599 ×10⁻⁶ cm/s
- fn (%) [5, 16]: 75.1%
- fu,.p ([6]; rat in vivo measurements): 0.60
- half-life [7]: 1.44 min
- half-life ([7]; plasma): 1.4 min

Compound: CC(C)C[C@H](CN)CC(=O)O [Pregabalin]
- Log Doct 7.4 [1]: −1.75
- Log Poct [1]: 1.12
- LogPS (Lat-1; rat, in vivo, pH 7.4): −3.01
- PS (Lat-1; rat, in vivo, pH 7.4): 0.000976 mL/s/g

Compound: L-Lactate
- Log Doct 7.4 [1]: −0.70
- PS (MAT1): 0.00125 mL/s/g
